Measured values: patent US20190100534A1, “Cephem Compounds with Latent Reactive Groups” (Gladius Pharmaceuticals, Inc., priority 2017, published 2019)

Tests used:
EC (Escherichia coli) = assay: MIC determination; assay type: cell-based; conditions: 20 μM Apo-Transferrin, 37° C., 18 hours
Outline: (§1)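 Overnight (18 h, 37 °C) microdilution assay. Pre-grown LB cultures were brought to 0.08-0.1 OD600 in cation-adjusted Mueller-Hinton broth; wells contained 20 μM apo-transferrin and compound between 64 and 0.125 μg/mL. Lowest clear-well concentration recorded as MIC.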

[1] = tested on: KOXY (Klebsiella oxytoca); assay: MIC determination; assay type: cell-based; conditions: Klebsiella oxytoca, CAMH broth, 20 μM Apo-Transferrin, 37° C., 18 hours, read-out: Minimum Inhibitory Concentrations, KOXY
Outline: as §1

[2] = tested on: KP (Klebsiella pneumoniae); assay: MIC determination; assay type: cell-based; conditions: 20 μM Apo-Transferrin, 37° C., 18 hours
Outline: as §1

[3] = tested on: A. baumannii (JMI OXA-58); assay: MIC determination; assay type: cell-based, Acinetobacter baumannii; conditions: Acinetobacter baumannii, class D carbapenemase producer, CAMH broth, 20 μM Apo-Transferrin, 37° C., 18 hours, read-out: Minimum Inhibitory Concentrations, A. baumannii (JMI OXA-58)
Description: (§2) Sterile technique was used throughout these experiments. Suspensions of organisms were removed from storage (−80° C.) and partially thawed. Partially thawed organisms (1 μL) were inoculated into 3 mL sterile LB Broth in a sterile culture tube and capped, then cultured at 37° C. with shaking for 4-5 hours until the optical density at 600 nm (OD600) was greater than 0.1 on a single beam spectrophotometer.
(§3) The concentration of organisms was adjusted to 0.08-0.1 OD600 (0.5 McFarland units) by dilution with sterile cation-adjusted Meuller-Hinton (CAMH) broth. The suspensions were used within 30 minutes of preparation.
(§4) A stock solution was made of each test compound by measuring 6.4 mg of the compound on an analytical balance and dissolving it in DMSO (1 mL) to get a transparent solution. The solutions were stored at −20° C. and thawed prior to use.
(§5) Sterile CAMH broth (200 μL) containing 20 μM Apo-Transferrin was pipetted into the first row of 8 columns of a sterile, round-bottomed, transparent, 96-well microplate using an 8-channel pipette equipped with sterile tips. One hundred μL was pipetted into the wells of the remaining 11 rows.
(§6) With an 8-channel pipette equipped with sterile tips, 100 μL of the first row solution was transferred to the second row and mixed. The process was repeated for the second to third rows and continued through row 11. One hundred μL from row 11 was removed and discarded so that all 12 rows contained 100 μL. Row 12 contained no compound and rows 1-11 contained 64, 32, 16, 8, 4, 2, 1, 0.5, 0.25, 0.125, […] of a given compound.
(§7) Inoculant suspensions (0.5 μL) were added to the 12 wells of each column. The plates were then covered and incubated at 37° C. overnight for 18 hours.
(§8) For each organism the MIC was determined by identifying the transparent well with the lowest test compound concentration.

A. baumannii = assay: MIC determination; assay type: cell-based, Acinetobacter baumannii; conditions: for MIC: Acinetobacter baumannii, A. baumannii, CAMH broth, 20 μM Apo-Transferrin, 37° C., 18 hours, read-out: Minimum Inhibitory Concentrations, A. baumannii
Description: as §2, §3, §4, §5, §6, §7, §8

EC (RR -1) = assay: MIC determination; assay type: cell-based, Escherichia coli; conditions: CAMH broth, 20 μM Apo-Transferrin, 37° C., 18 hours
Description: as §2, §3, §4, §5, §6, §7, §8

EC (RR -2) = assay: MIC determination; assay type: cell-based, Escherichia coli; conditions: CAMH broth, 20 μM Apo-Transferrin, 37° C., 18 hours
Description: as §2, §3, §4, §5, §6, §7, §8

EC (URMC-1) = assay: MIC determination; assay type: cell-based, Escherichia coli; conditions: Escherichia coli, CAMH broth, 20 μM Apo-Transferrin, 37° C., 18 hours, read-out: Minimum Inhibitory Concentrations, EC (URMC-1)
Description: as §2, §3, §4, §5, §6, §7, §8

EC (URMC-2) = assay: MIC determination; assay type: cell-based, Escherichia coli; conditions: Escherichia coli, CAMH broth, 20 μM Apo-Transferrin, 37° C., 18 hours, read-out: Minimum Inhibitory Concentrations, EC (URMC-2)
Description: as §2, §3, §4, §5, §6, §7, §8

EC (URMC-3) = assay: MIC determination; assay type: cell-based, Escherichia coli; conditions: Escherichia coli, CAMH broth, 20 μM Apo-Transferrin, 37° C., 18 hours, read-out: Minimum Inhibitory Concentrations, EC (URMC-3)
Description: as §2, §3, §4, §5, §6, §7, §8

EC(ATCC NDM-1) = assay: MIC determination; assay type: cell-based, Escherichia coli; conditions: Escherichia coli, CAMH broth, 20 μM Apo-Transferrin, 37° C., 18 hours, read-out: Minimum Inhibitory Concentrations, EC(ATCC NDM-1)
Description: as §2, §3, §4, §5, §6, §7, §8

EC(JMI OXA-48) = assay: MIC determination; assay type: cell-based, Escherichia coli; conditions: Escherichia coli, CAMH broth, 20 μM Apo-Transferrin, 37° C., 18 hours, read-out: Minimum Inhibitory Concentrations, EC(JMI OXA-48)
Description: as §2, §3, §4, §5, §6, §7, §8

EC(KB1 CTX-M-15) = assay: MIC determination; assay type: cell-based, Escherichia coli; conditions: Escherichia coli, CAMH broth, 20 μM Apo-Transferrin, 37° C., 18 hours, read-out: Minimum Inhibitory Concentrations, EC(KB1 CTX-M-15)
Description: as §2, §3, §4, §5, §6, §7, §8

EC(KB2 CTX-M-15) = assay: MIC determination; assay type: cell-based, Escherichia coli; conditions: Escherichia coli, CAMH broth, 20 μM Apo-Transferrin, 37° C., 18 hours, read-out: Minimum Inhibitory Concentrations, EC(KB2 CTX-M-15)
Description: as §2, §3, §4, §5, §6, §7, §8

EA (URMC -3) = assay: MIC determination; assay type: cell-based; conditions: CAMH broth, 20 μM Apo-Transferrin, 37° C., 18 hours
Description: as §2, §3, §4, §5
To each well of the first row was pipetted 2.0 μL of the 6.4 mg/mL stock test compound stock solution to give 1:100 dilutions and a final concentration of 64 μg/mL and mixed.
as §6, §7, §8

CF (RR -1) = assay: MIC determination; assay type: cell-based, Citrobacter freundii; conditions: CAMH broth, 20 μM Apo-Transferrin, 37° C., 18 hours
Description: as §2, §3, §4, §5, §6, §7, §8

ENC (ATCC NDM-1) = assay: MIC determination; assay type: cell-based, Enterobacter cloacae; conditions: CAMH broth, 20 μM Apo-Transferrin, 37° C., 18 hours
Description: as §2, §3, §4, §5, §6, §7, §8

[4] = tested on: Isogenic E. coli J58 strain carrying DHA-1; assay: MIC determination, isogenic E. coli strains; assay type: cell-based; conditions: Escherichia coli, 18 h, read-out: Mimimum Inhibitory Concentrations, DHA-1
Outline: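 MIC read as the lowest compound level giving a transparent well after 18 h at 37° C. Strains: parent E. coli J53 and isogenic transformants expressing plasmid-borne (pBC-SK(+)) beta-lactamases such as DHA-1; inoculum 0.5 McFarland; CAMH broth plus 20 μM apo-transferrin; compound 64 μg/mL downward, 2-fold dilutions.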

[5] = tested on: Isogenic E. coli J58 strain carrying CTX-M-14; assay: MIC determination, isogenic E. coli strains; assay type: cell-based; conditions: Escherichia coli, 18 h, read-out: Mimimum Inhibitory Concentrations, CTX-M-14
Outline: (§9)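 Isogenic E. coli J53 carrying plasmid-encoded CTX-M-14 or CTX-M-15 (ampicillin-selected), standardized to 0.08-0.1 OD600, incubated overnight (18 h, 37° C.) in CAMH broth plus 20 μM apo-transferrin over 2-fold compound dilutions starting at 64 μg/mL. Lowest concentration with no visible growth recorded as MIC.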

[6] = tested on: Isogenic E. coli J58 strain carrying CTX-M-15; assay: MIC determination, isogenic E. coli strains; assay type: cell-based; conditions: Escherichia coli, 18 h, read-out: Mimimum Inhibitory Concentrations, CTX-M-15
Outline: as §9

[7] = tested on: Isogenic E. coli J58 strain carrying VIM-2; assay: MIC determination, isogenic E. coli strains; assay type: cell-based; conditions: for MIC: Escherichia coli, 18 h, read-out: Mimimum Inhibitory Concentrations, VIM-2; for MICs for an E. coli strain carrying the gene for carbapenemase VIM-1, in words: review of Tables 4-1 and 4-2
Outline: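 Broth microdilution in cation-adjusted Mueller-Hinton with 20 μM apo-transferrin, compound serially halved from 64 μg/mL, read by eye after 18 h at 37 °C as lowest clear well. Inoculum: VIM-2-expressing E. coli J53 (pBC-SK(+) plasmid), adjusted to 0.5 McFarland.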

[8] = first KP column of Table 3-1, CAMH broth
[9] = second KP column of Table 3-1, CAMH broth

Structure (SMILES) | MIC [1] [µg/mL] | Minimum Inhibitory Concentrations, KP [2, 8] [microgram/mL] | Minimum Inhibitory Concentrations, KP [2, 9] [microgram/mL] | MIC [3] [µg/mL] | MIC (A. baumannii) [µg/mL] | Mimimum Inhibitory Concentrations, EC (RR -1) (EC (RR -1)) [microgram/mL] | Mimimum Inhibitory Concentrations, EC (RR -2) (EC (RR -2)) [microgram/mL] | MIC (EC (URMC-1)) [µg/mL] | MIC (EC (URMC-2)) [µg/mL] | MIC (EC (URMC-3)) [µg/mL] | MIC (EC(ATCC NDM-1)) [µg/mL] | MIC (EC(JMI OXA-48)) [µg/mL] | MIC (EC(KB1 CTX-M-15)) [µg/mL] | MIC (EC(KB2 CTX-M-15)) [µg/mL] | Mimimum Inhibitory Concentrations, EA (URMC -3) (EA (URMC -3)) [microgram/mL] | Mimimum Inhibitory Concentrations, CF (RR -1) (CF (RR -1)) [microgram/mL] | Mimimum Inhibitory Concentrations, ENC (ATCC NDM-1) (ENC (ATCC NDM-1)) [microgram/mL] | MIC [4] [µg/mL] | MIC [5] [µg/mL] | MIC [7] [µg/mL] | other results
CC(C)(O/N=C(\C(=O)N[C@@H]1C(=O)N2C(C(=O)O)=C(C=Cc3ccc(C[N+]4(C)Cc5cc(O)c(O)c(Cl)c5C4)cc3)CS[C@H]12)c1csc(N)n1)C(=O)O (mixture of isomers) [Compound 432, 2-(4-((E/Z)-2-((6R,7R)-7-((Z)-2-(2-aminothiazol-4-yl)-2-(((2-carboxypropan-2-yl)oxy)imino)acetamido)-2-carboxy-8-oxo-5-thia-1-azabicyclo[4.2.0]oct-2-en-3-yl)vinyl)benzyl)-4-chloro-5,6-dihydroxy-2-methylisoindolin-2-ium] | 0.5 | 1 | 1 | > 64 | 1 | ≤0.06 | ≤0.06 | 0.5 | ≤ 0.06 | 0.13 | > 64 | 0.5 | 1 | 1 | 0.5 | 0.5 | >64 | ≤ 0.06 | ≤ 0.06 | ≤ 0.06 | MIC (EC (Escherichia coli); Escherichia coli, first EC column of Table 3-1, CAMH broth, read-out: Minimum Inhibitory Concentrations, EC): 0.25 µg/mL; Minimum Inhibitory Concentrations, EC (EC (Escherichia coli); Table 3-1, CAMH broth): 0.25 microgram/mL; MICs for an Acinetobacter baumannii strain, in words (A. baumannii; review of Table 2): low microgram/mL MICs; MIC [6]: ≤ 0.06 µg/mL; MICs for an E. coli strain carrying the gene for carbapenemase VIM-1, in words [7]: low microgram/mL MICs
CC(C)(O/N=C(\C(=O)N[C@@H]1C(=O)N2C(C(=O)O)=C(C=Cc3ccc(C[n+]4ccc(-c5ccc(O)c(O)c5)cc4)cc3)CS[C@H]12)c1csc(N)n1)C(=O)O (mixture of isomers) [Compound 412, 1-(4-((E/Z)-2-((6R,7R)-7-((Z)-2-(2-aminothiazol-4-yl)-2-(((2-carboxypropan-2-yl)oxy)imino)acetamido)-2-carboxy-8-oxo-5-thia-1-azabicyclo[4.2.0]oct-2-en-3-yl)vinyl)benzyl)-4-(3,4-dihydroxyphenyl)pyridin-1-ium] | 0.5 | 2 | 2 | > 64 | 8 | 0.25 | ≤0.06 | 0.25 | 4 | ≤ 0.06 | > 64 | 2 | 16 | 32 | ≤0.06 | ≤0.06 | >64 | – | 0.5 | 0.5 | MIC [6]: 0.13 µg/mL
CC(C)(O/N=C(\C(=O)N[C@@H]1C(=O)N2C(C(=O)O)=C(C=Cc3ccc(C[N+]4(C)CCc5c(Cl)c(O)c(O)c(Cl)c5C4)cc3)CS[C@H]12)c1csc(N)n1)C(=O)O (mixture of isomers) [Compound 429, 2-(4-((E/Z)-2-((6R,7R)-7-((Z)-2-(2-aminothiazol-4-yl)-2-(((2-carboxypropan-2-yl)oxy)imino)acetamido)-2-carboxy-8-oxo-5-thia-1-azabicyclo[4.2.0]oct-2-en-3-yl)vinyl)benzyl)-5,8 dichloro-6,7-dihydroxy-2-methyl-1,2,3,4-tetrahydroisoquinolin-2-ium] | 0.5 | 1 | 1 | > 64 | 2 | ≤0.06 | ≤0.06 | 0.5 | 0.13 | 0.5 | > 64 | 2 | 8 | 8 | 2 | ≤0.06 | >64 | 0.25 | – | ≤ 0.06 | MICs for an E. coli strain carrying the gene for carbapenemase VIM-1, in words [7]: low microgram/mL MICs
